Columns and labels:
[1] = Plasma exposure after oral gavage in mice, LC-MS/MS; format: in vivo; details: mouse, plasma, mice, oral gavage 25 mg/kg
Description: For a number of representative compounds in Table 5, their plasma exposures with oral administration in mice via oral gavage were determined by LC-MS/MS, with the data shown in Table 9.

recombinant BRD4 BD1 = molecular target: T1, recombinant BRD4 BD1 (Homo sapiens, UniProt O60885); experiment: Competitive fluorescence-polarization (FP) binding assay, BRD4 BD1; details: competitive FP, Table 6; read-out: IC50 as determinined in FP assays BRD4 BD1
T1 construct: for recombinant BRD4 BD1 and BRD4 BD2 proteins
Description: Fluorescence Polarization (FP) competitive binding studies were carried out using a FAM labeled fluorescent probe, see, e.g., Cpd. No. 350 of US 2014/0256706, to determine binding affinities of representative Compounds of the Disclosure for recombinant BRD4 BD1 and BRD4 BD2 proteins. Equilibrium dissociation constants (Kd) values of the fluorescent probe to BRD4 BD1 and BD2 proteins were determined from protein saturation experiments by monitoring the total fluorescence polarization of mixtures composed with the fluorescent probe at a fixed concentration and proteins with increasing concentrations up to full saturation. Serial dilutions of testing proteins were mixed with the fluorescent probe to a final volume of 200 μl in the assay buffer (100 mM phosphate buffer, pH=6.5, 0.01% Triton X-100 (Sigma, 282103) being added right before assays). Final fluorescent probe concentration was 1.5 nM for both proteins. Plates were incubated at room temperature for 30 minutes with gentle shaking to assure equilibrium. FP values in millipolarization units (mP) were measured using the Infinite M-1000 plate reader (Tecan U.S., Research Triangle Park, N.C.) in Microfluor 1 96-well, black, round-bottom plates (Thermo Scientific, Waltham, Mass.) at an excitation wavelength of 485 nm and an emission wavelength of 530 nm. Kd values of the fluorescent probe, which were calculated by fitting the sigmoidal dose-dependent FP increases as a function of protein concentrations using Graphpad Prism 6.0 software (Graphpad Software, San Diego, Calif.), are 5.5 and 3.0 nM to BDR4 BD1 and 2, respectively.
The IC50 and Ki values of compounds were determined in a competitive binding experiment. See US 2014/0256706. Mixtures of 10 μl of the tested compounds in assay buffer with 40% Ethylene Glycol and 190 μl of preincubated protein/probe complex solution in the assay buffer (100 mM potassium phosphate, pH 6.5, 0.01% Triton X-100) were added into assay plates which were incubated at room temperature for 30 minutes with gentle shaking. Final concentrations of proteins were 10 and 6 nM in assays for BRD4 BD1 and BD2, respectively. Final probe concentration is 1.5 nM in both assays. Negative controls containing protein/probe complex only (equivalent to 0% inhibition), and positive controls containing only free probes (equivalent to 100% inhibition), were included in each assay plate. FP values were measured as described above. IC50 values were determined by nonlinear regression fitting of the competition curves. Instead of being calculated from IC50 values as described before. Ki values of competitive inhibitors were obtained directly by nonlinear regression fitting as well, based upon the Kd values of the probe to different proteins, and concentrations of the proteins and probes in the competitive assays (US 2014/0256706; Wang, FEBS Lett. 360:111 (1995); Zhang et al., Analytical Biochemistry, 331:138 (2004)).
Representative compounds in Table 5 were evaluated for their binding affinities to BRD4 BD1 and BD2 proteins using the Competitive Fluorescence-Polarization (FP) Assays described in Example 6, with the data included in Table 6.

MDA-MB-231 = experiment: Cell growth inhibition, 4-day proliferation assay, MDA-MB-231; format: cell-based; details: Homo sapiens, MDA-MB-231; WST-8 assay, Table 7; read-out: Cell growth inhibition (IC50 (nM)) MDA-MB-231
Outline: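 WST-8 colorimetric read-out (absorbance 450 nm after 1-2 h) after 4-day compound exposure of 3,000-10,000 cells/well at 37 °C; IC50 from variable-slope sigmoid fit of DMSO-normalized signal.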

MOLM-13 = experiment: Cell growth inhibition, 4-day proliferation assay, MOLM-13; format: cell-based; details: Homo sapiens, MOLM-13, WST-8 assay, Table 7; read-out: Cell growth inhibition (IC50 (nM)) MOLM-13
recombinant BRD4 BD2 = molecular target: T2, recombinant BRD4 BD2 (Homo sapiens, UniProt O60885); experiment: Competitive fluorescence-polarization (FP) binding assay, BRD4 BD2; details: competitive FP, Table 6; read-out: IC50 as determinined in FP assays BRD4 BD2
T2 construct: for recombinant BRD4 BD1 and BRD4 BD2 proteins

Row | SMILES | concentration at 1 h ([1]; 1 h, read-out: Plasma concentration (ng/mL) 1 h) | concentration at 3 h ([1]; 3 h, read-out: Plasma concentration (ng/mL) 3 h) | concentration at 6 h ([1]; 6 h, read-out: Plasma concentration (ng/mL) 6 h) | IC50 (recombinant BRD4 BD1) | IC50 (MDA-MB-231) | IC50 (MOLM-13) | IC50 (recombinant BRD4 BD2)
1 | Cc1c(C#Cc2ccccn2)sc2c1C(c1ccc(Cl)cc1)=N[C@@H](CC(N)=O)c1nnc(C)n1-2 [Compound 109, (S)-2-(4-(4-chlorophenyl)-3,9-dimethyl-2-(pyridin-2-ylethynyl)-6H-thieno[3,2-f][1,2,4]triazolo[4,3-a][1,4]diazepin-6-yl)acetamide] | 2170 ng/mL | 609 ng/mL | 184 ng/mL | 3.8 nM | 2.57 nM | 7.2 nM | 282 nM
2 | Cc1c(C#Cc2ccc(N)nc2)sc2c1C(c1ccc(Cl)cc1)=N[C@@H](CC(=O)N1CCN(C)CC1)c1nnc(C)n1-2 [Compound 120, (S)-2-(2-((6-aminopyridin-3-yl)ethynyl)-4-(4-chlorophenyl)-3,9-dimethyl-6H-thieno[3,2-f][1,2,4]triazolo[4,3-a][1,4]diazepin-6-yl)-1-(4-methylpiperazin-1-yl)ethan-1-one] | – | – | – | 5.3 nM | 9.74 nM | 9.64 nM | 4.9 nM
3 | Cc1c(C#Cc2ccc(N)nc2)sc2c1C(c1ccc(Cl)cc1)=N[C@@H](CC(N)=O)c1nnc(C)n1-2 [Compound 121, (S)-2-(2-((6-aminopyridin-3-yl)ethynyl)-4-(4-chlorophenyl)-3,9-dimethyl-6H-thieno[3,2-f][1,2,4]triazolo[4,3-a][1,4]diazepin-6-yl)acetamide] | – | – | – | 10.6 nM | 21.9 nM | 4.76 nM | 8.4 nM
4 | Cc1c(C#Cc2ccccn2)sc2c1C(c1ccc(Cl)cc1)=N[C@@H](CC(=O)N1CCNCC1)c1nnc(C)n1-2 [Compound 122, (S)-2-(4-(4-chlorophenyl)-3,9-dimethyl-2-(pyridin-2-ylethynyl)-6H-thieno[3,2-f][1,2,4]triazolo[4,3-a][1,4]diazepin-6-yl)-1-(piperazin-1-yl)ethan-1-one] | – | – | – | 14.2 nM | 19.4 nM | 15.3 nM | 34.6 nM
5 | Cc1c(C#Cc2ccccn2)sc2c1C(c1ccc(Cl)cc1)=N[C@@H](CC(=O)N1CCC(O)CC1)c1nnc(C)n1-2 [Compound 123, (S)-2-(4-(4-chlorophenyl)-3,9-dimethyl-2-(pyridin-2-ylethynyl)-6H-thieno[3,2-f][1,2,4]triazolo[4,3-a][1,4]diazepin-6-yl)-1-(4-hydroxypiperidin-1-yl)ethan-1-one] | – | – | – | 20.4 nM | 61.1 nM | 71.6 nM | 59.4 nM
6 | Cc1c(C#Cc2ccccn2)sc2c1C(c1ccc(Cl)cc1)=N[C@@H](CC(=O)N1CC3(COC3)C1)c1nnc(C)n1-2 [Compound 124, (S)-2-(4-(4-chlorophenyl)-3,9-dimethyl-2-(pyridin-2-ylethynyl)-6H-thieno[3,2-f][1,2,4]triazolo[4,3-a][1,4]diazepin-6-yl)-1-(2-oxa-6-azaspiro[3.3]heptan-6-yl)ethan-1-one] | – | – | – | 10.9 nM | 86.3 nM | 57.4 nM | 62 nM
7 | Cc1c(C#Cc2ccccn2)sc2c1C(c1ccc(Cl)cc1)=N[C@@H](CC(=O)N1CC(F)(F)C1)c1nnc(C)n1-2 [Compound 127, (S)-2-(4-(4-chlorophenyl)-3,9-dimethyl-2-(pyridin-2-ylethynyl)-6H-thieno[3,2-f][1,2,4]triazolo[4,3-a][1,4]diazepin-6-yl)-1-(3,3-difluoroazetidin-1-yl)ethan-1-one] | – | – | – | 25.9 nM | 47 nM | 57 nM | 79 nM
8 | CC(=O)NNC(=O)C[C@@H]1N=C(c2ccc(Cl)cc2)c2c(sc(C#Cc3ccccn3)c2C)-n2c(C)nnc21 [Compound 128, (S)—N′-acetyl-2-(4-(4-chlorophenyl)-3,9-dimethyl-2-(pyridin-2-ylethynyl)-6H-thieno[3,2-f][1,2,4]triazolo[4,3-a][1,4]diazepin-6-yl)acetohydrazide] | – | – | – | 21.7 nM | 202 nM | 42.6 nM | 12.8 nM
9 | Cc1c(C#Cc2ccccn2)sc2c1C(c1ccc(Cl)cc1)=N[C@@H](CC(=O)NC1CCN(C)CC1)c1nnc(C)n1-2 [Compound 130, (S)-2-(4-(4-chlorophenyl)-3,9-dimethyl-2-(pyridin-2-ylethynyl)-6H-thieno[3,2-f][1,2,4]triazolo[4,3-a][1,4]diazepin-6-yl)-N-(1-methylpiperidin-4-yl)acetamide] | – | – | – | 8.7 nM | 13 nM | 3.84 nM | 19 nM
10 | Cc1c(C#Cc2ccccn2)sc2c1C(c1ccc(Cl)cc1)=N[C@@H](CC(=O)NC1CCNCC1)c1nnc(C)n1-2 [Compound 131, (S)-2-(4-(4-chlorophenyl)-3,9-dimethyl-2-(pyridin-2-ylethynyl)-6H-thieno[3,2-f][1,2,4]triazolo[4,3-a][1,4]diazepin-6-yl)-N-(piperidin-4-yl)acetamide] | – | – | – | 12.6 nM | 243 nM | 188 nM | 26.9 nM
11 | Cc1c(C#Cc2ccccn2)sc2c1C(c1ccc(Cl)cc1)=N[C@@H](CC(=O)N1CCC(F)(F)CC1)c1nnc(C)n1-2 [Compound 132, (S)-2-(4-(4-chlorophenyl)-3,9-dimethyl-2-(pyridin-2-ylethynyl)-6H-thieno[3,2-f][1,2,4]triazolo[4,3-a][1,4]diazepin-6-yl)-1-(4,4-difluoropiperidin-1-yl)ethan-1-one] | – | – | – | 22.4 nM | 91.9 nM | 80 to 160 nM | 33.5 nM
12 | Cc1nnc(C[C@@H]2N=C(c3ccc(Cl)cc3)c3c(sc(C#Cc4ccccn4)c3C)-n3c(C)nnc32)s1 [Compound 134, (S)-4-(4-chlorophenyl)-3,9-dimethyl-6-((5-methyl-1,3,4-thiadiazol-2-yl)methyl)-2-(pyridin-2-ylethynyl)-6H-thieno[3,2-f][1,2,4]triazolo[4,3-a][1,4]diazepine] | – | – | – | 7.88 nM | 85.2 nM | 11.9 nM | 59.2 nM
13 | Cc1c(C#Cc2ccccn2)sc2c1C(c1ccc(Cl)cc1)=N[C@@H](Cc1nnc(C(C)C)o1)c1nnc(C)n1-2 [Compound 135, (S)-2-((4-(4-chlorophenyl)-3,9-dimethyl-2-(pyridin-2-ylethynyl)-6H-thieno[3,2-f][1,2,4]triazolo[4,3-a][1,4]diazepin-6-yl)methyl)-5-isopropyl-1,3,4-oxadiazole] | – | – | – | 10 nM | 24.5 nM | 13.8 nM | 45 nM
14 | Cc1c(C#Cc2ccccn2)sc2c1C(c1ccc(Cl)cc1)=N[C@@H](Cc1nnc(C3CC3)o1)c1nnc(C)n1-2 [Compound 136, (S)-2-((4-(4-chlorophenyl)-3,9-dimethyl-2-(pyridin-2-ylethynyl)-6H-thieno[3,2-f][1,2,4]triazolo[4,3-a][1,4]diazepin-6-yl)methyl)-5-cyclopropyl-1,3,4-oxadiazole] | – | – | – | 11.3 nM | 52.1 nM | 28.1 nM | 60.1 nM
